According to US9808003B2, “Herbicidally active 2-(substituted-phenyl)-cyclopentane-1,3-dione compounds and derivatives thereof” (Syngenta Limited, priority 2013, dated 2017):

Legend:
Assay in all cases: Test 1A glasshouse assay, post-emergence herbicidal activity
Type in all cases: in vivo
[1] = test system: Alopecurus myosuroides (ALOMY); settings: application rate 250 g/ha, 13 days after application, visual (100%=total damage; 0%=no damage); for pest or weed control at 250 g/ha: Alopecurus myosuroides, 312 h, read-out: Post-emergence Herbicidal Activity (% Phytotoxicity) ALOMY
Method in brief: (§1)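 Pots sown in standard soil; plants grown 8 days in glasshouse (24/16 °C day/night, 14 h light, 65% humidity), then sprayed with compound formulated in acetone/water (50:50) with 0.5% Tween 20. Regrown under same conditions, watered twice daily; visual % phytotoxicity scored 13 days after application (0 = none, 100 = total damage).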

Lolium perenne (LOLPE) = settings: Lolium perenne, 312 h, application rate 250 g/ha, 13 days after application, visual (100%=total damage; 0%=no damage), read-out: Post-emergence Herbicidal Activity (% Phytotoxicity) LOLPE
Method in brief: as §1

[2] = test system: Echinochloa crus-galli (ECHCG); settings: Echinochloa crus-galli, 312 h, application rate 250 g/ha, 13 days after application, visual (100%=total damage; 0%=no damage), read-out: Post-emergence Herbicidal Activity (% Phytotoxicity) ECHCG
Method in brief: as §1

Avena fatua (AVEFA) = settings: Avena fatua, 312 h, application rate 250 g/ha, 13 days after application, visual (100%=total damage; 0%=no damage), read-out: Post-emergence Herbicidal Activity (% Phytotoxicity) AVEFA
Method in brief: as §1

| SMILES | pest or weed control at 250 g/ha [1] [%] | pest or weed control at 250 g/ha (Lolium perenne (LOLPE)) [%] | pest or weed control at 250 g/ha [2] [%] | pest or weed control at 250 g/ha (Avena fatua (AVEFA)) [%] | Post-emergence Herbicidal Activity (% Phytotoxicity) ALOMY [1] [%] |
| --- | --- | --- | --- | --- | --- |
| Cc1cc(C)c(C2C(=O)CC(CCNC(=O)c3ccc(F)nc3F)C2=O)c(C)c1 (stereo not shown) [Compound A166] | 80 | 90 | 60 | 90 |  |
| Cc1cc(C)c(C2C(=O)CC(CCNC(=O)c3ccc(C)nc3Cl)C2=O)c(C)c1 (stereo not shown) [Compound A167] | 60 | 70 | 90 | 30 |  |
| Cc1cc(C)c(C2C(=O)CC(CCNC(=O)c3cccnc3Br)C2=O)c(C)c1 (stereo not shown) [Compound A168] | 60 | 70 | 80 | 80 |  |
| Cc1cc(-n2cc(Cl)nn2)cc(C)c1C1C(=O)CC(CCNC(=O)c2ccccn2)C1=O (stereo not shown) [Compound A170, N-[2-[3-[4-(4-chlorotriazol-1-yl)-2,6-dimethyl-phenyl]-2,4-dioxo-cyclopentyl]ethyl]pyridine-2-carboxamide] | 90 | 90 | 100 | 100 | 90 |
| Cc1cc(-n2ccnn2)cc(C)c1C1C(=O)CC(CCNC(=O)c2ccccn2)C1=O (stereo not shown) [Compound A171] | 0 | 10 | 60 | 10 |  |
| Cc1cc(C)c(C2C(=O)CC(CCNC(=O)c3sc(C(F)(F)F)nc3C(F)(F)F)C2=O)c(C)c1 (stereo not shown) [Compound A172] | 90 | 100 | 100 | 90 |  |
| Cc1cc(C)c(C2C(=O)CC(CCNC(=O)c3cc(C(F)(F)F)nn3C)C2=O)c(C)c1 (stereo not shown) [Compound A173] | 100 | 100 | 100 | 100 |  |
| COCc1nc(C2CC2)c(C(=O)NCCC2CC(=O)C(c3c(C)cc(C)cc3C)C2=O)s1 (stereo not shown) [Compound A174] | 90 | 100 | 90 | 100 |  |
| Cc1cc(C)c(C2C(=O)CC(CCNC(=O)c3nn(C)c(C)c3Cl)C2=O)c(C)c1 (stereo not shown) [Compound A177] | 100 | 90 | 100 | 90 |  |
| Cc1cc(C)c(C2C(=O)CC(CCNC(=O)c3oc(C)nc3C)C2=O)c(C)c1 (stereo not shown) [Compound A178] | 70 | 100 | 80 | 90 |  |
| Cc1cc(C)c(C2C(=O)CC(CCNC(=O)c3c(C)noc3C)C2=O)c(C)c1 (stereo not shown) [Compound A179] | 70 | 70 | 80 | 100 |  |
| Cc1cc(C)c(C2C(=O)CC(CCNC(=O)c3snnc3C)C2=O)c(C)c1 (stereo not shown) [Compound A180] | 70 | 80 | 90 | 80 |  |
| Cc1cc(C)c(C2C(=O)CC(CCNC(=O)c3ocnc3C)C2=O)c(C)c1 (stereo not shown) [Compound A181] | 80 | 90 | 80 | 100 |  |
| Cc1cc(C)c(C2C(=O)CC(CCNC(=O)c3nc(C)sc3C)C2=O)c(C)c1 (stereo not shown) [Compound A182] | 80 | 80 | 90 | 90 |  |
| Cc1cc(C)c(C2C(=O)CC(CCNC(=O)c3sc(C)nc3C(F)F)C2=O)c(C)c1 (stereo not shown) [Compound A183] | 60 | 90 | 90 | 60 |  |
| Cc1cc(-c2ccccc2Cl)cc(C)c1C1C(=O)CC(CCNC(=O)c2ccccn2)C1=O (stereo not shown) [Compound A184] | 10 | 60 | 90 | 20 |  |
| Cc1cc(C)c(C2C(=O)CC(CCNC(=O)c3ncc(Br)cc3F)C2=O)c(C)c1 (stereo not shown) [Compound A185] | 90 | 100 | 100 | 100 |  |
| Cc1cc(C)c(C2C(=O)CC(CCNC(=O)c3ccc(F)c(Br)n3)C2=O)c(C)c1 (stereo not shown) [Compound A186] | 100 | 100 | 100 | 90 |  |
